What was measured:
Assay type in all cases: in vivo
[1] = tested on: rat model of bone cancer pain; assay: Rat model of bone cancer pain (intra-tibial MRMZ1 mammary gland carcinoma cells)
Method: Adult female rats were given intra-tibial injections of MRMZ1 rat mammary gland carcinoma cells (3 μl, 10^7 cells/ml). These animals gradually developed mechanical hyperalgesia, mechanical allodynia (skin sensitivity to non-noxious stimuli) and hind limb sparing, beginning on day 12-14 following cell injection.

[2] = tested on: rat model of inflammatory pain; assay: Inflammatory mechanical hyperalgesia (FCA, Randal-Sellito paw withdrawal threshold); conditions: for maximal reversal of mechanical hyperalgesia: ipsilateral paw, 24 h after FCA
Method: Mechanical hyperalgesia was examined in a rat model of inflammatory pain. Paw withdrawal thresholds to an increasing pressure stimulus were measured by the Randal-Sellito technique using an analgesymeter (Ugo Basile, Milan), in naïve animals prior to an intraplantar injection of complete Freund's complete adjuvant (FCA) into the left hind paw. 24 h later paw withdrawal thresholds were measured again prior to (predose) and then from 10 min to 6 h following drug or vehicle administration. Reversal of hyperalgesia in the ipsilateral paw was calculated according to the formula: [formula]
(§1) All experiments were carried out using groups of 6 animals. Stock concentrations of drugs were dissolved in distilled water and subsequent dilutions were made in 0.9% saline for subcutaneous administration in a volume of 4 mlkg^−1. All drugs were made up in plastic vials and kept in the dark.
(§2) Statistical analysis was carried out on withdrawal threshold readings (g) using ANOVA with repeated measures followed by Tukey's HSD test. Efficacy refers to the maximal reversal of hyperalgesia observed at the doses used.

[3] = tested on: rat model of neuropathic pain; assay: Neuropathic mechanical hyperalgesia (partial ligation of the left sciatic nerve)
Method: Mechanical hyperalgesia was examined in a rat model of neuropathic pain induced by partial ligation of the left sciatic nerve. Approximately 14 days following surgery mechanical withdrawal thresholds of both the ligated (ipsilateral) and non-ligated (contralateral) paw were measured prior to (predose) and then from 10 min to 6 h following drug or vehicle administration. Reversal of hyperalgesia at each time point was calculated according to the formula: [formula]
as §1, §2

[4] = 10 and 30 μg/kg s.c. 3 times a week from the day of cell injection

CN1CC[C@]23c4c5ccc(O)c4O[C@H]2[C@@H](O)C=C[C@H]3[C@H]1C5 [morphine]
mechanical allodynia ([1]; acute treatment, 1-10 mg/kg s.c.): dose dependent reduction
hind limb sparing ([1]; acute treatment, highest dose only (of 1-10 mg/kg s.c.)): significant reduction

O=P(O)(O)C(O)(Cn1ccnc1)P(=O)(O)O [Zoledronate, 1-hydroxy-2-(imidazol-1-yl)ethane-1,1-diphosphonic acid]
hind limb sparing [1, 4]: profound inhibition
mechanical allodynia [1, 4]: profound inhibition
development of hind limb sparing over 19 days ([1]; higher dose (30 μg/kg s.c. 3 times a week), 19 days following intra-tibial cell injection): did not develop any sign of hind limb sparing
acute effect of a single injection ([1]; single injection 100 μg/kg s.c. on day 19): no acute effect
time to maximal reversal of mechanical hyperalgesia ([2]; 0.003-0.1 mgkg^−1 s.c.): ≤ 30 min
activity 3 h following administration (duration) ([2]; 0.003-0.1 mgkg^−1 s.c., 3 h after administration): no significant activity
maximal reversal of mechanical hyperalgesia ([2]; 0.003-0.1 mgkg^−1 s.c.): 100%
maximal reversal of mechanical hyperalgesia ([2]; 0.003-0.1 mgkg^−1 s.c., listed as zoledronic acid): about 100%
contralateral activity ([2]; highest dose of 0.003-0.1 mgkg^−1 s.c., contralateral paw): Some contralateral activity
time to maximal reversal of mechanical hyperalgesia ([3]; 0.003-0.1 mgkg^−1 s.c.): ≤ 30 min
reversal of mechanical hyperalgesia (maximal) ([3]; 0.003-0.1 mgkg^−1 s.c., about 14 days after surgery): 40%
contralateral paw withdrawal thresholds ([3]; highest dose of 0.003-0.1 mgkg^−1 s.c.): significant reduction

NCCC(O)(P(=O)(O)O)P(=O)(O)O [Pamidronate, 3-amino-1-hydroxypropane-1,1-diphosphonic acid]
reversing inflammatory mechanical hyperalgesia ([2]; 0.03-1 mgkg^−1 s.c.): ineffective
paw withdrawal thresholds ([2]; highest dose tested of 0.03-1 mgkg^−1 s.c.): slight reductions
contralateral paw withdrawal thresholds ([3]; 0.03-1 mgkg^−1 s.c.): some reductions
maximal reversal of hyperalgesia ([3]; 0.03-1 mgkg^−1 s.c.): 20%

O=P(O)(O)C(Cl)(Cl)P(=O)(O)O [Clodronate, 1,1-dichloromethane-1,1-diphosphonic acid]
reversing inflammatory mechanical hyperalgesia ([2]; 0.3-10 mgkg^−1 s.c.): ineffective
paw withdrawal thresholds ([2]; highest dose tested of 0.3-10 mgkg^−1 s.c.): slight reductions
activity in the model of neuropathic pain (reversal of hyperalgesia) ([3]; 0.3-10 mgkg^−1 s.c.): inactive
contralateral paw withdrawal thresholds ([3]; 0.3-10 mgkg^−1 s.c.): some reductions

Source: patent publication US20040063670A1, “Use of bisphosphonates for pain treatment” (priority 2000, published 2004)
